Assays:
[1] = Times to onset, minimal and maximal, observed in the indexed observations. [column 'DELAI' in source]; conditions: human
[2] = human
[3] = human, serum
[4] = human; remark: listed apart in the source
[5] = Highest frequency of acute liver toxicity observed during clinical trials, expressed as a percentage. [column '% AIGUE' in source]; conditions: human
[6] = human; remark: listed apart in the source
[7] = human, serum, 4383 h
[8] = human; remark: listed apart in the source
[9] = human; remark: listed apart in the source
[10] = human; remark: listed apart in the source
[11] = Highest frequency of moderate liver toxicity observed during clinical trials, expressed as a percentage. [column '% BIOL' in source]; conditions: human
[12] = human; remark: listed apart in the source
[13] = human; remark: listed apart in the source
[14] = human, serum; remark: listed apart in the source
[15] = human; remark: listed apart in the source
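For Hepatotoxicity (association with vascular disease) in this document: count of indexed literature references reporting vascular liver injury in humans, e.g. peliosis hepatitis, hepatic veno-occlusive disease or Budd-Chiari syndrome.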
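For Hepatotoxicity (benign tumour) in this document: value is a count of indexed literature references citing a benign tumour confirmed by histopathology.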
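For Hepatotoxicity (choleostasis) in this document: human cholestatic liver injury, shown by histopathology or by peak ALT or AST elevation over alkaline phosphatase ratio below 2, value counts indexed literature reports.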
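For Hepatotoxicity (chronic liver disease) in this document: chronic liver injury confirmed by histopathology or persistently raised serum aminotransferase activity beyond 6 months, value given as the count of indexed literature references.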
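For Hepatotoxicity (cirrhosis) in this document: value is a count of indexed literature references reporting cirrhosis confirmed by histopathology.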
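For Hepatotoxicity (cytolytic) in this document: human cytolytic liver injury, shown by histopathology or by a ratio above 5 of peak ALT or AST elevation to alkaline phosphatase elevation, value counts indexed references.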
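For Hepatotoxicity (granulomatous hepatitis) in this document: value is a count of indexed literature references reporting granulomatous liver disease confirmed by histopathology.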
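For Hepatotoxicity (malignant tumour) in this document: malignant tumour confirmed by histopathology, value gives the count of indexed literature references reporting it.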
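For Hepatotoxicity (severe hepatitis) in this document: human clinical data: severe hepatitis, meaning potentially life-threatening liver failure or clinically observed cases, the value counts how many indexed literature references report it.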
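For Hepatotoxicity (steatosis) in this document: steatosis confirmed by histopathology, value is the count of indexed references.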

SMILES	Hepatotoxicity (time to onset) [1]	Hepatotoxicity (cirrhosis) [2]	Hepatotoxicity (acute) [3]	Hepatotoxicity (cytolytic) [4]	Hepatotoxicity (acute) [5] [%]	Hepatotoxicity (steatosis) [6]	Hepatotoxicity (chronic liver disease) [7]	Hepatotoxicity (severe hepatitis) [8]	Hepatotoxicity (choleostasis) [9]	Hepatotoxicity (malignant tumour) [10]	Hepatotoxicity (moderate) [11] [%]	Hepatotoxicity (granulomatous hepatitis) [12]	Hepatotoxicity (benign tumour) [13]	Hepatotoxicity (moderate) [14]	Hepatotoxicity (association with vascular disease) [15]	Hepatotoxicity (acute) ([5]; Liver) [%]	Hepatotoxicity (severe hepatitis) ([8]; Liver)	Hepatotoxicity (moderate) ([11]; Liver) [%]
CC(C)NCC(O)c1ccc(NS(C)(=O)=O)cc1 (stereo not given) [SOTALOL]	10 months	0	1	1	0	0	1	0	0	0	0	0	0	0	0	–	–	–
CN1CCOC(c2ccccc2)c2ccccc2C1 (stereo not given) [NEFOPAM]	4 weeks	0	0	0	0	0	0	0	0	0	14.3	0	0	1	0	–	–	–
CC1Cc2ccccc2N1NC(=O)c1ccc(Cl)c(S(N)(=O)=O)c1 (stereo not given) [INDAPAMIDE]	6 months - 5 years	0	4	3	–	0	0	–	1	0	–	0	0	1	0	0	1	0
COc1ccc2c(c1)c(CC(=O)OCC(=O)O)c(C)n2C(=O)c1ccc(Cl)cc1 [ACEMETACIN]	12 weeks	0	1	0	0	0	0	0	1	0	0	0	0	0	0	–	–	–
N=C(N)NC(=O)c1nc(Cl)c(N)nc1N [AMILORIDE]	2 weeks - 6 months	0	0	0	0	0	0	0	0	0	1.1	0	0	2	0	–	–	–
CO/N=C(\C(=O)N[C@@H]1C(=O)N2C(C(=O)O)=C(COC(C)=O)CS[C@H]12)c1csc(N)n1 [CEFOTAXIME]	3 days - 2 weeks	0	4	1	3.3	0	0	0	2	0	33.3	0	0	33	0	–	–	–
OCCN1CCN(CCCN2c3ccccc3C=Cc3ccccc32)CC1 [OPIPRAMOL]	11 days - 11 weeks	0	2	2	0	0	0	1	0	0	0	0	0	0	0	–	–	–
CS[C@H]1SC[C@H]2C(=O)N(C)[C@@H](C(C)C)C(=O)OC[C@@H](NC(=O)c3cnc4ccccc4n3)C(=O)N[C@@H](C)C(=O)N(C)[C@@H]1C(=O)N(C)[C@@H](C(C)C)C(=O)OC[C@@H](NC(=O)c1cnc3ccccc3n1)C(=O)N[C@@H](C)C(=O)N2C [ECHINOMYCIN]	4 days - 19 days	0	4	3	4.8	0	0	1	0	0	29.4	0	0	8	0	–	–	–
CN1CCN2c3ncccc3Cc3ccccc3C2C1 (stereo not given) [MIRTAZAPINE]	1 year - 3 years	0	1	1	0	1	0	1	0	0	1	0	0	2	0	–	–	–
Cc1cc(O)c(C(=O)N[C@@H](C(=O)N[C@@H]2C(=O)N3C(C(=O)O)=C(CSc4nnnn4C)CS[C@H]23)c2ccc(O)cc2)cn1 [CEFPIRAMIDE]	1 month	0	1	1	0	0	0	0	0	0	10	0	0	5	0	–	–	–
CCCCN/C(=C1/C=C(Cl)C=CC1=O)c1ccccc1Cl	1 month	0	1	0	0	0	0	0	0	0	54.5	0	0	1	0	–	–	–
